From ChEMBL document CHEMBL1152288, “Characterization of thien-2-yl 1S,2R-milnacipran analogues as potent norepinephrine/serotonin transporter inhibitors for the treatment of neuropathic pain” (J Med Chem, 2008)
Values belong to the molecule of their own block, whether it stands above or below them. Activity calls are given as the source filed them. No cut-off for these calls is given here.

Experiments:
Rattus norvegicus [1] = species on record: Rattus norvegicus; experiment: Reversal of pin-prick-induced neuropathic mechanical hyperalgesia in Harlan Sprague-Dawley rat sciatic nerve ligation model; type: functional, organism-based
Rattus norvegicus [2] = experiment: Antinociceptive activity in CD rat assessed as reduction in number of hind paw flinching at 30 mg/kg, po by formalin test; type: functional, organism-based; parameters: dose 30 mg/kg
[3] = Volume of distribution in Sprague-Dawley rat at 5 mg/kg, iv; type: ADME, organism-based; parameters: dose 5 mg/kg, route intravenous; details: in vivo
[4] = AUC in Sprague-Dawley rat at 30 mg/kg, po; type: ADME, organism-based; parameters: dose 30 mg/kg, route oral; details: plasma
[5] = Mean residence time in Sprague-Dawley rat at 5 mg/kg, iv; type: ADME, organism-based; parameters: dose 5 mg/kg, route intravenous; details: in vivo
Transporter = Transporter (Rattus norvegicus, UniProt Q63380); experiment: biochemical
Chain of Transporter (Q63380 whole entry): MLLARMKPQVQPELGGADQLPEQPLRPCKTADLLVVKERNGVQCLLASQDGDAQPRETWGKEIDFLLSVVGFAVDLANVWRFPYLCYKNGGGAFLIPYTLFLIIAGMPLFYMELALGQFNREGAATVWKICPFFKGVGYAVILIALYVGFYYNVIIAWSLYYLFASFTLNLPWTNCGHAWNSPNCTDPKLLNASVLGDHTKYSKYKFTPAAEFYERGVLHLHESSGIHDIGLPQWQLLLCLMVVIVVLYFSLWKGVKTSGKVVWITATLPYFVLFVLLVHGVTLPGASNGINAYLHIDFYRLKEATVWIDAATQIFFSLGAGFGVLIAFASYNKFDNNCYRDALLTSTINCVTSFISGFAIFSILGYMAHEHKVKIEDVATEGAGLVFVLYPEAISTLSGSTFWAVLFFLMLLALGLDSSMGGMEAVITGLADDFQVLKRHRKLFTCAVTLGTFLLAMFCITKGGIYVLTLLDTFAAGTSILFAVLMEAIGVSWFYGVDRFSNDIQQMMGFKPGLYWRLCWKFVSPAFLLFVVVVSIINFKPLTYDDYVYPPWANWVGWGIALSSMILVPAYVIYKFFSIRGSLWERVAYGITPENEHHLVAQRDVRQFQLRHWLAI
Description: Displacement of Levo[ring-2,5,6-3H]norepinephrine from rat synaptosomal NET expressed in HEK293 cells by microplate scintillation counter

[6] = molecular target: Sodium-dependent serotonin transporter (Homo sapiens, UniProt P31645); experiment: biochemical
Chain of Sodium-dependent serotonin transporter (Homo sapiens, UniProt P31645) (P31645 whole entry): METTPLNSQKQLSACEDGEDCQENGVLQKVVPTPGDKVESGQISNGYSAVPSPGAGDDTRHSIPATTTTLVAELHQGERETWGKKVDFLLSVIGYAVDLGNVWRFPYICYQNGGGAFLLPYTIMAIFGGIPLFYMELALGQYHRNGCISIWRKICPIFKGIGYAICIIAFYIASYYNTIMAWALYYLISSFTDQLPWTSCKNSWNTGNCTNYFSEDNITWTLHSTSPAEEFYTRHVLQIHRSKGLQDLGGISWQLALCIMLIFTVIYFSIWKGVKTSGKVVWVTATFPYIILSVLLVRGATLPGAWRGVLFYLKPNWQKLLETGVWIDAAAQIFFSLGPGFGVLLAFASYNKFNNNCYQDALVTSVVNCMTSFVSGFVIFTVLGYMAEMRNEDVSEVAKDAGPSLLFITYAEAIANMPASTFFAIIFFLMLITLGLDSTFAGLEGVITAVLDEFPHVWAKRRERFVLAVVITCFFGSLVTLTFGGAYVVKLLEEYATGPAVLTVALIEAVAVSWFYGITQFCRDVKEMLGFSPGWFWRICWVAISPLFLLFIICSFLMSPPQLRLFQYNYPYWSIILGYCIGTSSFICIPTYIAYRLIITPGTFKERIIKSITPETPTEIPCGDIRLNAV
Description: Displacement of [alpha,beta-3H(N)]-5-hydroxytryptamine from human cloned SERT expressed in HEK293 cells by microplate scintillation counter

[7] = Bioavailability in Sprague-Dawley rat at 5 mg/kg, iv; type: ADME, organism-based; details: in vivo
[8] = molecular target: Sodium-dependent serotonin transporter (Rattus norvegicus, UniProt P31652); type: cell-based, HEK293
Chain of Sodium-dependent serotonin transporter (Rattus norvegicus, UniProt P31652) (P31652 whole entry): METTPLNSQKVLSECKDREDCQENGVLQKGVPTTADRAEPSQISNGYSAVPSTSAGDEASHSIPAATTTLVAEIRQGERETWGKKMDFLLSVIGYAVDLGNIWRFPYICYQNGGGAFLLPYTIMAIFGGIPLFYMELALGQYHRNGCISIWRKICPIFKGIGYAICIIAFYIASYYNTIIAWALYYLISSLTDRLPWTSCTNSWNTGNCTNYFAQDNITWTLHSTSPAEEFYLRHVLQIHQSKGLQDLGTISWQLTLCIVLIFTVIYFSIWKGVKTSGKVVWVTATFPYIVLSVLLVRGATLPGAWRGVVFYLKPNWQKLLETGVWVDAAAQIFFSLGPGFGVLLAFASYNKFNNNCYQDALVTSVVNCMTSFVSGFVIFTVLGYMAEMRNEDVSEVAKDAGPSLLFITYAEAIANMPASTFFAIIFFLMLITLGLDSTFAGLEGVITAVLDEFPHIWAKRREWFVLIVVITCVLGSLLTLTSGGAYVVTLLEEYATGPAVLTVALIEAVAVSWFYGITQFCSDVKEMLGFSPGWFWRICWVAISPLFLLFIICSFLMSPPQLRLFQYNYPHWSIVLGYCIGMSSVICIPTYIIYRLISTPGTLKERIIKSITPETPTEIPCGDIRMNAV

[9] = AUC in Sprague-Dawley rat at 5 mg/kg, iv; type: ADME, organism-based; parameters: dose 5 mg/kg, route intravenous; details: plasma
[10] = Drug level in Sprague-Dawley rat brain at 30 mg/kg, po after 4 hrs; type: ADME, organism-based; parameters: dose 30 mg/kg, route oral; details: read-out: Drug uptake
[11] = Drug level in Sprague-Dawley rat brain at 30 mg/kg, po after 1 hr; type: ADME, organism-based; parameters: dose 30 mg/kg, route oral; details: read-out: Drug uptake
[12] = Renal clearance in Sprague-Dawley rat at 5 mg/kg, iv; type: ADME, organism-based, Kidney; parameters: dose 5 mg/kg, route intravenous; details: in vivo, read-out: CL_renal
Rattus norvegicus [13] = experiment: Antinociceptive activity in CD rat assessed as reduction in number of hind paw flinching at 60 mg/kg, po by formalin test; type: functional; parameters: scale not given: the % may be the effect or the level left
[14] = Metabolic stability in human liver microsomes assessed as systemic clearance at 1 uM after 15 mins by LC-MS/MS analysis; type: ADME, Microsome
Cytochrome P450 2D6 = Cytochrome P450 2D6 (Homo sapiens, UniProt P10635); experiment: Inhibition of CYP2D6; type: ADME
[15] = molecular target: Voltage-gated inwardly rectifying potassium channel KCNH2 (Homo sapiens, UniProt Q12809)
Chain of Voltage-gated inwardly rectifying potassium channel KCNH2 (Q12809 whole entry): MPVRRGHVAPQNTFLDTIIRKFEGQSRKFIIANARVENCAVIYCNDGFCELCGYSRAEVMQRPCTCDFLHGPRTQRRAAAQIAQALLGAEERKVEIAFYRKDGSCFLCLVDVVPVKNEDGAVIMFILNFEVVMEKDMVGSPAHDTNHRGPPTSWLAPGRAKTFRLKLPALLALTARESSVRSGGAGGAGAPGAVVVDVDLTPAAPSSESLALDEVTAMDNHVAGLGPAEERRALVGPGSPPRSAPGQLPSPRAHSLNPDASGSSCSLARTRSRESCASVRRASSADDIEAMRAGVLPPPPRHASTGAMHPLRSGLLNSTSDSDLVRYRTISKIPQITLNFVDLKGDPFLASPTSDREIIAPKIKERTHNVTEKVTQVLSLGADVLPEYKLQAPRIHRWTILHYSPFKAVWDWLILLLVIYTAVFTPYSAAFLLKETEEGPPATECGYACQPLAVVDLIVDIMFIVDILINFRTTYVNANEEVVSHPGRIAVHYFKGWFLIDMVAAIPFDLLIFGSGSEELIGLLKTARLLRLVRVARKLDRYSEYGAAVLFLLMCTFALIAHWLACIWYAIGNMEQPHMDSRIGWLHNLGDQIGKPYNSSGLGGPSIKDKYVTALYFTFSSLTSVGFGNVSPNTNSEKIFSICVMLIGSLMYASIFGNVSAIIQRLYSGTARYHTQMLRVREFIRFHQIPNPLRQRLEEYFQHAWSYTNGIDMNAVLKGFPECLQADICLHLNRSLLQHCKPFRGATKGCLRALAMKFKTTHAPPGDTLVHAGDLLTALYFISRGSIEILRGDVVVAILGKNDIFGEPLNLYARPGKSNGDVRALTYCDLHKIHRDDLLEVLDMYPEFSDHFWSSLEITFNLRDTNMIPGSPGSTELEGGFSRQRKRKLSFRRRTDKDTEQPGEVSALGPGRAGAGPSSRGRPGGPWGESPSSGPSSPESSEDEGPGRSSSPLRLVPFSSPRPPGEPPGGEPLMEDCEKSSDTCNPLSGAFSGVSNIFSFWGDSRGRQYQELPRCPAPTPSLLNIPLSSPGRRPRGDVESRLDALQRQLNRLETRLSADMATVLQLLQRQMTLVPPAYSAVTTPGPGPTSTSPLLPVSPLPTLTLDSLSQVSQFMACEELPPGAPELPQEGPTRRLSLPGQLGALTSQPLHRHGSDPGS
Description: Inhibition of human ERG expressed in HEK293 cells by patch-clamp method

[16] = molecular target: Sodium-dependent dopamine transporter (Homo sapiens, UniProt Q01959); experiment: biochemical
Chain of Sodium-dependent dopamine transporter (Homo sapiens, UniProt Q01959) (Q01959 whole entry): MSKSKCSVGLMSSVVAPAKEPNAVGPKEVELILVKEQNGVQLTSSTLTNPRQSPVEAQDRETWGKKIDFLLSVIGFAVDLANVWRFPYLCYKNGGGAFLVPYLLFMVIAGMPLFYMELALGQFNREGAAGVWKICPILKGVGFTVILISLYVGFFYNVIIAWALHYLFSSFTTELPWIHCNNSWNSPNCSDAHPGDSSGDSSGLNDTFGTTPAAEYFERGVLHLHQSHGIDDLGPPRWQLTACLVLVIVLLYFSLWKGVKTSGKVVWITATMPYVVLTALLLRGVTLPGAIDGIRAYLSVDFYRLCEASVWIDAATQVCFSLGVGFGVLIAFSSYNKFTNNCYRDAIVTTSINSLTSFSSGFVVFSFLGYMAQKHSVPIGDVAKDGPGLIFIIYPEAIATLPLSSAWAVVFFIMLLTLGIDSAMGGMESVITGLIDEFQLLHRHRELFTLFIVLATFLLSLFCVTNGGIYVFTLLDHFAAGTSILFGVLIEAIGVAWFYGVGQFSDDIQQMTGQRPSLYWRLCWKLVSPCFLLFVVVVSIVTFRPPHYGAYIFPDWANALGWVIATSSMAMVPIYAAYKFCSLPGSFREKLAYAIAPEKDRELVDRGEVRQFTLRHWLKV
Description: Displacement of 3,4-[ring-2,5,6-3H]dihydroxyphenylethylamine from human cloned DAT expressed in HEK293 cells by microplate scintillation counter

[17] = Volume of distribution at steady state in Sprague-Dawley rat at 5 mg/kg, iv; type: ADME, organism-based; parameters: dose 5 mg/kg, route intravenous; details: in vivo, read-out: Vdss
[18] = Tmax in Sprague-Dawley rat at 30 mg/kg, po; type: ADME, organism-based; parameters: dose 30 mg/kg, route oral; details: in vivo
[19] = Half life in Sprague-Dawley rat at 5 mg/kg, iv; type: ADME, organism-based; parameters: dose 5 mg/kg, route intravenous; details: in vivo
[20] = molecular target: Sodium-dependent noradrenaline transporter (Homo sapiens, UniProt P23975); experiment: biochemical
Chain of Sodium-dependent noradrenaline transporter (P23975 whole entry): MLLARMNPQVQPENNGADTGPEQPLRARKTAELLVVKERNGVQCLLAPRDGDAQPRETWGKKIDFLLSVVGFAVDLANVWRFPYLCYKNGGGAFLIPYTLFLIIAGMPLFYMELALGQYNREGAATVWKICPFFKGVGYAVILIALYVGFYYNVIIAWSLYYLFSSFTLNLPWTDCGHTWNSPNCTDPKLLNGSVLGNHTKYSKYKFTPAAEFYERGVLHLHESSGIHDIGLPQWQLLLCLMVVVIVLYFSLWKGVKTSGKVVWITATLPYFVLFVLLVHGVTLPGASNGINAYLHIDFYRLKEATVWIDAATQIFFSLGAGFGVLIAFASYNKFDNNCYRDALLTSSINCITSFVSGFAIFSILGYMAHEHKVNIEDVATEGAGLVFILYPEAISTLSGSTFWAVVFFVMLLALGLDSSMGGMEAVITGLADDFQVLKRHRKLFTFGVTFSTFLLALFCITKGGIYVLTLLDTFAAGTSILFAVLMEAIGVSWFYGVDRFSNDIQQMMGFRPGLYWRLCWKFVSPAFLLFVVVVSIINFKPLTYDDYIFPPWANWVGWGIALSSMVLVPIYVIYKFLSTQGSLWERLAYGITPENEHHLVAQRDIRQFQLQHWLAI
Description: Displacement of Levo[ring-2,5,6-3H]norepinephrine from human cloned NET expressed in HEK293 cells by microplate scintillation counter

[21] = molecular target: Sodium-dependent dopamine transporter (Rattus norvegicus, UniProt P23977); experiment: biochemical
Chain of Sodium-dependent dopamine transporter (Rattus norvegicus, UniProt P23977) (P23977 whole entry): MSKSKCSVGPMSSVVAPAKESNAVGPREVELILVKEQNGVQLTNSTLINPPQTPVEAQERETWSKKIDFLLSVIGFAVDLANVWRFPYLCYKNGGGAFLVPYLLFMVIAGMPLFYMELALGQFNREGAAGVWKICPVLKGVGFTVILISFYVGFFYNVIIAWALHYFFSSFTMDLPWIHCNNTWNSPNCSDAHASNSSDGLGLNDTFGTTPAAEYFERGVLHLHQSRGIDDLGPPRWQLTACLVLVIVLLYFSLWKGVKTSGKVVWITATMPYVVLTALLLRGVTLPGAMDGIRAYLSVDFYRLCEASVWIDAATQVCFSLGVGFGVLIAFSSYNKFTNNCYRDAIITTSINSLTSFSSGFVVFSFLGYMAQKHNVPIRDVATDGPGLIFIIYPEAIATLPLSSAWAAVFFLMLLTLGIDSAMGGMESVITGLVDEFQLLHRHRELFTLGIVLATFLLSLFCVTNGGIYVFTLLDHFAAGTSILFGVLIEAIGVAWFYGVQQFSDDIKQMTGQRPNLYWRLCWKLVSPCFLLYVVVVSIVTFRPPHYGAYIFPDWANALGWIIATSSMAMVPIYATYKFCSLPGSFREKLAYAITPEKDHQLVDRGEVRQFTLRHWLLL
Description: Displacement of 3,4-[ring-2,5,6-3H]dihydroxyphenylethylamine from rat synaptosomal DAT expressed in HEK293 cells by microplate scintillation counter

[22] = Apparent elimination half life in Sprague-Dawley rat at 30 mg/kg, po; type: ADME, organism-based; parameters: dose 30 mg/kg, route oral; details: in vivo, read-out: beta t1/2 (converted)
[23] = Lipophilicity, log D of the compound; type: physicochemical; details: octanol/water
[24] = Apparent oral clearance in Sprague-Dawley rat at 30 mg/kg, po; type: ADME, organism-based; parameters: dose 30 mg/kg, route oral; details: in vivo
[25] = Drug excretion in Sprague-Dawley rat urine at 5 mg/kg, iv; type: ADME, organism-based; parameters: dose 5 mg/kg, route intravenous; details: read-out: Activity
[26] = Plasma clearance in Sprague-Dawley rat at 5 mg/kg, iv; type: ADME, organism-based; parameters: dose 5 mg/kg, route intravenous
[27] = Ratio of drug level in brain to plasma in Sprague-Dawley rat at 30 mg/kg, po after 1 hr; type: ADME, organism-based; parameters: dose 30 mg/kg, route oral
[28] = Cmax in Sprague-Dawley rat at 30 mg/kg, po; type: ADME, organism-based; parameters: dose 30 mg/kg, route oral; details: in vivo
[29] = Partition coefficient, log P of the compound; type: physicochemical; details: octanol/water
in vitro = details: human, Caco-2
Description: Apparent permeability from apical to basolateral side of the human Caco-2 cells

[30] = Ratio of drug level in brain to plasma in Sprague-Dawley rat at 30 mg/kg, po after 4 hrs; type: ADME, organism-based; parameters: dose 30 mg/kg, route oral
[31] = Metabolic stability in rat liver microsomes assessed as systemic clearance at 1 uM after 15 mins by LC-MS/MS analysis; type: ADME, Microsome
[32] = Volume of distribution at steady state in monkey at 5 mg/kg, iv or 30 mg/kg, po; type: ADME, organism-based, Macaca mulatta; details: rhesus monkey, in vivo, read-out: Vdss
[33] = Half life in Beagle dog at 5 mg/kg, iv or 30 mg/kg, po; type: ADME, organism-based, Canis lupus familiaris; details: in vivo
[34] = AUC in Beagle dog at 5 mg/kg, iv or 30 mg/kg, po; type: ADME, organism-based, Canis lupus familiaris; details: plasma
[35] = AUC in mouse at 5 mg/kg, iv or 30 mg/kg, po; type: ADME, organism-based; details: plasma
[36] = Volume of distribution at steady state in Beagle dog at 5 mg/kg, iv or 30 mg/kg, po; type: ADME, organism-based, Canis lupus familiaris; details: in vivo, read-out: Vdss
[37] = AUC in monkey at 5 mg/kg, iv or 30 mg/kg, po; type: ADME, organism-based, Macaca mulatta; details: rhesus monkey, plasma
[38] = Volume of distribution at steady state in mouse at 5 mg/kg, iv or 30 mg/kg, po; type: ADME, organism-based; details: in vivo, read-out: Vdss
[39] = Tmax in mouse at 5 mg/kg, iv or 30 mg/kg, po; type: ADME, organism-based; details: in vivo
[40] = Bioavailability in mouse at 5 mg/kg, iv or 30 mg/kg, po; type: ADME, organism-based; details: in vivo
[41] = Renal clearance in Beagle dog at 5 mg/kg, iv or 30 mg/kg, po; type: ADME, organism-based, Canis lupus familiaris, Kidney; details: in vivo, read-out: CL_renal
[42] = Renal clearance in monkey at 5 mg/kg, iv or 30 mg/kg, po; type: ADME, organism-based, Macaca mulatta, Kidney; details: rhesus monkey, in vivo; read-out: CL_renal
[43] = Plasma clearance in Beagle dog at 5 mg/kg, iv or 30 mg/kg, po; type: ADME, organism-based, Canis lupus familiaris
[44] = Cmax in monkey at 5 mg/kg, iv or 30 mg/kg, po; type: ADME, organism-based, Macaca mulatta; details: rhesus monkey, in vivo
[45] = Bioavailability in Beagle dog at 5 mg/kg, iv or 30 mg/kg, po; type: ADME, organism-based, Canis lupus familiaris; details: in vivo
[46] = Half life in mouse at 5 mg/kg, iv or 30 mg/kg, po; type: ADME, organism-based; details: in vivo
[47] = Cmax in mouse at 5 mg/kg, iv or 30 mg/kg, po; type: ADME, organism-based; details: in vivo, read-out: Vdss
[48] = Plasma clearance in monkey at 5 mg/kg, iv or 30 mg/kg, po; type: ADME, organism-based, Macaca mulatta; details: rhesus monkey
[49] = Bioavailability in monkey at 5 mg/kg, iv or 30 mg/kg, po; type: ADME, organism-based, Macaca mulatta; details: rhesus monkey, in vivo
[50] = Plasma clearance in mouse at 5 mg/kg, iv or 30 mg/kg, po; type: ADME, organism-based
[51] = Tmax in Beagle dog at 5 mg/kg, iv or 30 mg/kg, po; type: ADME, organism-based, Canis lupus familiaris; details: in vivo
[52] = Tmax in monkey at 5 mg/kg, iv or 30 mg/kg, po; type: ADME, organism-based, Macaca mulatta; details: rhesus monkey, in vivo
[53] = Half life in monkey at 5 mg/kg, iv or 30 mg/kg, po; type: ADME, organism-based, Macaca mulatta; details: rhesus monkey, in vivo

Description for physchem: Dissociation constant, pKa of the compound

SMILES: C=CCN(CC=C)C(=O)[C@@]1(c2cccs2)C[C@H]1CN
Activity (Rattus norvegicus [1]): Dose-dependent effect
Activity (Rattus norvegicus [2]): Active

SMILES: C=C(F)CN(CC)C(=O)[C@@]1(c2cccs2)C[C@H]1CN
Vd [3]: 7.5 L/kg
AUC [4]: 1500 ng·h/mL
MRT [5]: 0.7 h
IC50 (Transporter): 21 nM
IC50 [6]: 97 nM
bioavailability [7]: 47%
IC50 [8]: 160 nM
AUC [9]: 532 ng·h/mL
concentration at 4 h [10]: 31 ng/g
concentration at 1 h [11]: 70 ng/g
CL renal [12]: 59 mL/min/kg
Activity (Rattus norvegicus [13]): 56%
CLhep predicted at 1 µM [14]: 2.6 mL/min/kg
IC50 (Cytochrome P450 2D6): 6000 nM
IC50 [15]: > 10000 nM
IC50 [16]: > 10000 nM
Vd [17]: 5.5 L/kg
Tmax [18]: 0.4 h
half-life [19]: 0.6 h
IC50 [20]: 4.4 nM
IC50 [21]: > 10000 nM
half-life [22]: 0.9 h
logD [23]: 0.2
pKa (physchem): 9.4
CL/F [24]: 334 mL/min/kg
dose excreted [25]: 30%
clearance [26]: 140 mL/min/kg
Kp at 1 h [27]: 0.73
Cmax [28]: 974 ng/mL
logP [29]: 1.8
Papp A→B (in vitro): 16.7 ×10⁻⁶ cm/s
Kp at 4 h [30]: 1.1
CLhep predicted at 1 µM [31]: 54 mL/min/kg

SMILES: C=CCN(CC=C)C(=O)[C@@]1(c2cccs2)C[C@H]1CN.Cl
Vd [32]: 3.8 L/kg
half-life [33]: 2.4 h
AUC [34]: 17100 ng·h/mL
AUC [35]: 3020 ng·h/mL
Vd [36]: 3.6 L/kg
AUC [37]: 6320 ng·h/mL
Vd [38]: 5.4 L/kg
Tmax [39]: 0.3 h
bioavailability [40]: 92%
CL renal [41]: 2 mL/min/kg
CL renal [42]: 3.9 mL/min/kg
clearance [43]: 19.2 mL/min/kg
Cmax [44]: 905 ng/mL
bioavailability [45]: 78%
half-life [46]: 0.79 h
Cmax [47]: 1730 ng/mL
clearance [48]: 22.9 mL/min/kg
bioavailability [49]: 34%
clearance [50]: 135 mL/min/kg
Tmax [51]: 1.8 h
Tmax [52]: 4.5 h
half-life [53]: 2.1 h

IC50 [6]: 45 nM
CLhep predicted at 1 µM [14]: 5 mL/min/kg
IC50 [16]: > 10000 nM
IC50 [20]: 17 nM
Papp A→B (in vitro): 17.8 ×10⁻⁶ cm/s
CLhep predicted at 1 µM [31]: 63 mL/min/kg
SMILES: C=CCN(C(=O)[C@@]1(c2cccs2)C[C@H]1CN)C1CC1
IC50 [15]: > 10000 nM

IC50 [6]: 140 nM
CLhep predicted at 1 µM [14]: 11 mL/min/kg
IC50 [16]: > 10000 nM
IC50 [20]: 15 nM
Papp A→B (in vitro): 13.7 ×10⁻⁶ cm/s
CLhep predicted at 1 µM [31]: 62 mL/min/kg
SMILES: C=CCN(CC)C(=O)[C@@]1(c2cccs2)C[C@H]1CN

SMILES: C#CCN(CC)C(=O)[C@@]1(c2cccs2)C[C@H]1CN
AUC [4]: 3210 ng·h/mL
IC50 (Transporter): 160 nM
IC50 [6]: 81 nM
IC50 [8]: 160 nM
concentration at 4 h [10]: 112 ng/g
concentration at 1 h [11]: 230 ng/g
Activity (Rattus norvegicus [13]): 56%
CLhep predicted at 1 µM [14]: 2.6 mL/min/kg
IC50 [16]: > 10000 nM
Tmax [18]: 1.7 h
IC50 [20]: 19 nM
IC50 [21]: > 10000 nM
half-life [22]: 1.9 h
logD [23]: 0.1
pKa (physchem): 9.4
CL/F [24]: 156 mL/min/kg
Kp at 1 h [27]: 0.3
Cmax [28]: 649 ng/mL
logP [29]: 1.6
Papp A→B (in vitro): 20.6 ×10⁻⁶ cm/s
Kp at 4 h [30]: 0.3
CLhep predicted at 1 µM [31]: 44 mL/min/kg

SMILES: NC[C@@H]1C[C@@]1(C(=O)N1Cc2ccccc2C1)c1cccs1
AUC [4]: 272 ng·h/mL
IC50 (Transporter): 15 nM
IC50 [6]: 13 nM
IC50 [8]: 25 nM
concentration at 4 h [10]: 24 ng/g
concentration at 1 h [11]: 28 ng/g
Activity (Rattus norvegicus [13]): 56%
CLhep predicted at 1 µM [14]: 8.8 mL/min/kg
IC50 [16]: 5540 nM
Tmax [18]: 1.1 h
IC50 [20]: 21 nM
IC50 [21]: 2000 nM
half-life [22]: 2.3 h
logD [23]: 0.5
pKa (physchem): 9.5
CL/F [24]: 1840 mL/min/kg
Kp at 1 h [27]: 1
Cmax [28]: 58 ng/mL
logP [29]: 2.2
Papp A→B (in vitro): 8.4 ×10⁻⁶ cm/s
Kp at 4 h [30]: 1.8
CLhep predicted at 1 µM [31]: 64 mL/min/kg
